What was measured:
Cbl-b [1] = target: T1, Cbl-b (Homo sapiens, UniProt Q13191); experiment: Cbl-b inhibition assay (Cbl-b activity assay, FRET, Biological Example 1; 100 mM NaCl, 60 nM Src kinase); type: biochemical; conditions: upper bound stated in text lists; read-out: IC50 values in the Cbl-b inhibition assay of Biological Example 1
Outline: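 Here, the E2 UbcH5B, irreversibly linked to Bodipy-fluorescein ubiquitin, binds Cbl-b once Src kinase phosphorylates it; Cbl-b carries an N-terminal biotinylated Avi-tag captured by streptavidin-terbium. An absent FRET signal indicates inhibition.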

T-cell [2] = experiment: IL-2 secretion from T-cells co-stimulated with anti-CD3 and anti-CD28 antibody (Biological Example 2); type: cell-based, human; conditions: Homo sapiens, T-cell, primary human total T-cells, baseline = anti-CD3/anti-CD28 stimulated cells without inhibitor, read-out: IL-2 secretion, Anti-CD3/Anti-CD28 stimulation, fold change over baseline; for fold induction at 0.3 µM: 0.3 μM compound; for fold induction at 1 µM: 1 μM compound; for fold induction at 4 µM: 4 μM compound
Outline: (§1)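 Values are fold-change over baseline: readings (IL-2 release, CD25 staining) from inhibitor-treated T-cells divided against untreated cells […]. No detailed procedure stated.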

T-cell [3] = experiment: CD25 cell surface staining on T-cells co-stimulated with anti-CD3 and anti-CD28 antibody (Biological Example 2); type: cell-based, human; conditions: Homo sapiens, T-cell, primary human total T-cells, baseline = anti-CD3/anti-CD28 stimulated cells without inhibitor, read-out: CD25 staining, Anti-CD3/Anti-CD28 stimulation, fold change over baseline; for fold induction at 0.3 µM: 0.3 μM compound; for fold induction at 1 µM: 1 μM compound; for fold induction at 4 µM: 4 μM compound
Outline: as §1

Cbl-b [4] = target: T1, Cbl-b; experiment: Cbl-b activity assay (Cbl-b inhibition assay), TR-FRET of Cbl-b interaction with UbcH5B-Ub; type: biochemical; conditions: assay buffer with 100 mM NaCl, 60 nM Src kinase; read-out: Cbl-b activity IC50
Outline: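 Compound-treated Cbl-b was incubated 1.5 h with Src kinase (60 nM final; 30 nM for asterisked values, which also used 50 mM instead of 100 mM NaCl), 1 mM ATP and 5 mM MgCl2. Binding to fluorescent Ub-loaded UbcH5B (C85K mutant) was then read by TR-FRET after 1 h more.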

T-cell [5] = experiment: IL-2 secretion from T-cells stimulated with anti-CD3 antibody alone (Biological Example 2); type: cell-based; conditions: primary human total T-cells, read-out: IL-2 secretion, Anti-CD3 stimulation, fold change over baseline; for fold induction at 1 µM: 1 μM compound; for fold induction at 8 µM: 8 μM compound
T-cell [6] = experiment: CD25 cell surface staining on T-cells stimulated with anti-CD3 antibody alone (Biological Example 2); type: cell-based; conditions: primary human total T-cells, baseline = anti-CD3/anti-CD28 stimulated cells without inhibitor, read-out: CD25 staining, Anti-CD3 stimulation, fold change over baseline; for fold induction at 1 µM: 1 μM compound; for fold induction at 8 µM: 8 μM compound

T1 sequence (Q13191 36-427): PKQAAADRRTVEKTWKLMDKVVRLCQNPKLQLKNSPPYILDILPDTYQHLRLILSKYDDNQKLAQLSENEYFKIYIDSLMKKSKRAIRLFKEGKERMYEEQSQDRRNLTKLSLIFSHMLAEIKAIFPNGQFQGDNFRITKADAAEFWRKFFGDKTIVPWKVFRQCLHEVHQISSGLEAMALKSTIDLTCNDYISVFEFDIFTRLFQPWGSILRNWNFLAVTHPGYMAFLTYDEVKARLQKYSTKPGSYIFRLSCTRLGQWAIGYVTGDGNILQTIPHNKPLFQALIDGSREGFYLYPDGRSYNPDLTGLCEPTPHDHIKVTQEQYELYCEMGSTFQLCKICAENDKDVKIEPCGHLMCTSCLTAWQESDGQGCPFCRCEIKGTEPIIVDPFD

SMILES | IC50 (Cbl-b [1]) | fold induction at 0.3 µM (T-cell [2]) | fold induction at 1 µM (T-cell [2]) | fold induction at 0.3 µM (T-cell [3]) | fold induction at 1 µM (T-cell [3]) | IC50 (Cbl-b [4]) | fold induction at 1 µM (T-cell [5]) | fold induction at 1 µM (T-cell [6]) | fold induction at 4 µM (T-cell [2]) | fold induction at 4 µM (T-cell [3]) | fold induction at 8 µM (T-cell [5]) | fold induction at 8 µM (T-cell [6])
Cn1cnnc1C(F)(F)C1(c2cccc(N3Cc4c(cc(CN5CC[C@H](F)C5)cc4C(F)(F)F)C3=O)c2)CC1 [Compound 462, (S)-2-(3-(1-(difluoro(4-methyl-4H-1,2,4-triazol-3-yl)methyl)cyclopropyl)phenyl)-6-((3-fluoropyrrolidin-1-yl)methyl)-4-(trifluoromethyl)isoindolin-1-one] | ≤ 0.1 µM | 5 to 7.5 | > 7.5 | 1.01 to 1.3 | 1.31 to 1.5 | < 0.1 µM | > 0.201 | > 1 | – | – | – | –
Cn1cnnc1CC1(c2cccc(NC(=O)c3cc(CN4CCC5CC54)cc(C4CC4)n3)c2)COC1 (stereo not drawn) [Compound 497, 4-{2-azabicyclo[3.1.0]hexan-2-ylmethyl}-6-cyclopropyl-N-(3-{3-[(4-methyl-1,2,4-triazol-3-yl)methyl]oxetan-3-yl}phenyl)pyridine-2-carboxamide] | ≤ 0.1 µM | > 7.5 | > 7.5 | 1.31 to 1.5 | 1.31 to 1.5 | < 0.1 µM | > 0.201 | > 1 | – | – | – | –
Cn1cnnc1C[C@]1(c2cccc(N3Cc4c(cc(CN5CCC6(CC6)C5)cc4C(F)(F)F)C3=O)c2)CCOC1 (single isomer, unassigned) [Compound 517b] | ≤ 0.1 µM | > 7.5 | > 7.5 | 1.01 to 1.3 | 1.01 to 1.3 | < 0.1 µM | > 0.201 | > 1 | – | – | – | –
Cn1cnnc1CC1(c2cccc(NC(=O)c3cc(CN4CC[C@H](O)C4)nc(C4CC4)n3)c2)COC1 [Compound 505, 2-cyclopropyl-6-{[(3S)-3-hydroxypyrrolidin-1-yl]methyl}-N-(3-{3-[(4-methyl-1,2,4-triazol-3-yl)methyl]oxetan-3-yl}phenyl)pyrimidine-4-carboxamide] | ≤ 0.1 µM | 1.01 to 2.5 | 2.51 to 5 | 1.01 to 1.3 | 1.01 to 1.3 | < 0.1 µM | 0.051 to 0.1 | 0.601 to 0.8 | – | – | – | –
Cn1cnnc1CC1(c2cccc(N3Cc4c(cc(OC5CNC5)cc4C(F)(F)F)C3=O)c2)COC1 [Compound 514, 6-(azetidin-3-yloxy)-2-(3-{3-[(4-methyl-1,2,4-triazol-3-yl)methyl]oxetan-3-yl}phenyl)-4-(trifluoromethyl)-3H-isoindol-1-one] | ≤ 0.1 µM | 1.01 to 2.5 | 1.01 to 2.5 | 1.01 to 1.3 | 1.01 to 1.3 | < 0.1 µM | 0.051 to 0.1 | 0.801 to 1 | – | – | – | –
Cc1cc(C(=O)Nc2cccc(C(C)(C)Cc3nncn3C)c2)nc(C2CC2)n1 [Compound 511, 2-cyclopropyl-6-methyl-N-{3-[2-methyl-1-(4-methyl-1,2,4-triazol-3-yl)propan-2-yl]phenyl}pyrimidine-4-carboxamide] | ≤ 0.1 µM | 5 to 7.5 | > 7.5 | 1.31 to 1.5 | 1.31 to 1.5 | < 0.1 µM | 0.101 to 0.15 | 0.801 to 1 | – | – | – | –
Cn1cnnc1CC1(c2cccc(NC(=O)c3cc(CN4C[C@@H]5[C@H](C4)C5(F)F)cc(C4CC4)n3)c2)COC1 [Compound 499] | ≤ 0.1 µM | > 7.5 | > 7.5 | 1.31 to 1.5 | 1.31 to 1.5 | < 0.1 µM | > 0.201 | > 1 | – | – | – | –
Cn1cnnc1CC1(c2cccc(N3Cc4c(cc(CN5CCCC6CC65)cc4C(F)(F)F)C3=O)c2)COC1 (stereo not drawn) [Compound 490, 6-((2-azabicyclo[4.1.0]heptan-2-yl)methyl)-2-(3-(3-((4-methyl-4H-1,2,4-triazol-3-yl)methyl)oxetan-3-yl)phenyl)-4-(trifluoromethyl)isoindolin-1-one] | ≤ 0.1 µM | > 7.5 | > 7.5 | 1.01 to 1.3 | 1.01 to 1.3 | < 0.1 µM | > 0.201 | > 1 | – | – | – | –
Cn1cnnc1CC1(c2cccc(N3Cc4c(cc(CC5CCCO5)cc4C(F)(F)F)C3=O)c2)COC1 (stereo not drawn) [Compound 529, 2-(3-(3-((4-methyl-4H-1,2,4-triazol-3-yl)methyl)oxetan-3-yl)phenyl)-6-((THF-2-yl)methyl)-4-(trifluoromethyl)isoindolin-1-one] | ≤ 0.1 µM | 2.51 to 5 | > 7.5 | 1.01 to 1.3 | 1.01 to 1.3 | < 0.1 µM | 0.101 to 0.15 | 0.801 to 1 | – | – | – | –
Cn1cnnc1CC1(c2cccc(N3Cc4c(cc(CN5CC(C#N)C5)cc4C(F)(F)F)C3=O)c2)COC1 [Compound 423, 1-((2-(3-(3-((4-methyl-4H-1,2,4-triazol-3-yl)methyl)oxetan-3-yl)phenyl)-3-oxo-7-(trifluoromethyl)isoindolin-5-yl)methyl)azetidine-3-carbonitrile] | ≤ 0.1 µM | 2.51 to 5 | 5 to 7.5 | 1.01 to 1.3 | 1.01 to 1.3 | < 0.1 µM | 0.151 to 0.2 | 0.801 to 1 | > 7.5 | 1.31 to 1.5 | > 0.201 | > 1
C[C@H](Cc1nncn1C)c1cccc(N2Cc3c(cc([C@H](C)N4CC(O)C4)cc3C(F)(F)F)C2=O)c1 [Compound 406, 6-((S)-1-(3-hydroxyazetidin-1-yl)ethyl)-2-(3-((R)-1-(4-methyl-4H-1,2,4-triazol-3-yl)propan-2-yl)phenyl)-4-(trifluoromethyl)isoindolin-1-one] | ≤ 0.1 µM | 5 to 7.5 | > 7.5 | 1.01 to 1.3 | 1.31 to 1.5 | < 0.1 µM | > 0.201 | > 1 | > 7.5 | 1.31 to 1.5 | > 0.201 | > 1
Cn1cnnc1CC1(c2cccc(N3Cc4c(cc(C(F)(F)CO)cc4C(F)(F)F)C3=O)c2)COC1 [Example 547, 6-(1,1-difluoro-2-hydroxyethyl)-2-(3-(3-((4-methyl-4H-1,2,4-triazol-3-yl)methyl)oxetan-3-yl)phenyl)-4-(trifluoromethyl)isoindolin-1-one] | ≤ 0.1 µM | 1.01 to 2.5 | 1.01 to 2.5 | 1.01 to 1.3 | 1.01 to 1.3 | < 0.1 µM | 0.101 to 0.15 | 0.801 to 1 | – | – | – | –
Cn1cnnc1CC1(c2cccc(NC(=O)c3csc(C4CC4)n3)c2)COC1 [Compound 494, 2-cyclopropyl-N-(3-{3-[(4-methyl-1,2,4-triazol-3-yl)methyl]oxetan-3-yl}phenyl)-1,3-thiazole-4-carboxamide] | ≤ 0.3 µM | 1.01 to 2.5 | 1.01 to 2.5 | 1.01 to 1.3 | 1.01 to 1.3 | 0.1 to 0.3 µM | 0.051 to 0.1 | 0.601 to 0.8 | – | – | – | –
Cn1cnnc1CC1(c2cccc(NC(=O)c3cc(CN4C[C@H]5C[C@H]5C4)cc(C4CC4)n3)c2)COC1 [Compound 498, 4-{3-azabicyclo[3.1.0]hexan-3-ylmethyl}-6-cyclopropyl-N-(3-{3-[(4-methyl-1,2,4-triazol-3-yl)methyl]oxetan-3-yl}phenyl)pyridine-2-carboxamide] | ≤ 0.1 µM | > 7.5 | > 7.5 | 1.31 to 1.5 | 1.31 to 1.5 | < 0.1 µM | > 0.201 | > 1 | – | – | – | –

Source: patent US20220324835A1 (Nurix Therapeutics, Inc., priority 2018, published 2022)
